Measured values taken from ChEMBL document CHEMBL2407081, “Discovery of potent, isoform-selective inhibitors of histone deacetylase containing chiral heterocyclic capping groups and a N-(2-aminophenyl)benzamide binding unit” (J Med Chem, 2013).
Active and inactive are the calls of the source. The rule behind the calls is not given here.

What was measured:
[1] = Octanol-water partition coefficient, log p of the compound; assay type: physicochemical
Cytochrome P450 2C9 = Cytochrome P450 2C9 (Homo sapiens, UniProt P11712); experiment: Inhibition of CYP2C9 (unknown origin); assay type: ADME
DU-145 = experiment: Cytotoxicity against human DU145 cells assessed as growth inhibition by measuring cellular ATP level after 72 hrs by cell-titer glo assay; assay type: functional, cell-based; conditions: DU-145, 72 h
Histone deacetylase 2 = Histone deacetylase 2 (Homo sapiens, UniProt Q92769); experiment: Inhibition of recombinant His-tagged HDAC2 (1 to 488) (unknown origin) using MAL as substrate incubated for 3 hrs prior to substrate addition measured after 60 mins by fluorescence plate reader analysis
Histone deacetylase 1 = Histone deacetylase 1 (Homo sapiens, UniProt Q13547); experiment: Inhibition of recombinant C-terminal FLAG-tagged HDAC1 (unknown origin) expressed in Escherichia coli BL21 using MAL as substrate incubated for 1 hr prior to substrate addition measured after 60 mins by fluorescence plate reader analysis
Histone deacetylase 8 = target: T1, Histone deacetylase 8 (Homo sapiens, UniProt Q9BY41); experiment: Inhibition of recombinant HDAC8 (unknown origin) expressed in Escherichia coli BL21 using MAL as substrate incubated for 15 mins prior to substrate addition measured after 60 mins by fluorescence plate reader analysis
T1 sequence (Q9BY41 whole entry): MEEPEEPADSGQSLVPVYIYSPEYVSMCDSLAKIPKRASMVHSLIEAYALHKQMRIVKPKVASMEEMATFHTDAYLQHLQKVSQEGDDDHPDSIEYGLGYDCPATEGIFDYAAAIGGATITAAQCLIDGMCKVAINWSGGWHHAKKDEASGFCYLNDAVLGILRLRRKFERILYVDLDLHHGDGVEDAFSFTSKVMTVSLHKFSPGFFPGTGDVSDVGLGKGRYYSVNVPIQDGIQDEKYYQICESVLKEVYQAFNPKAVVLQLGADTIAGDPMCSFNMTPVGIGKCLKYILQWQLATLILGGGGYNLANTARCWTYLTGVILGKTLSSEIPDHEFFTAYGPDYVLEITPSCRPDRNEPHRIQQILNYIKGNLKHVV

HeLa = experiment: Induction of apoptosis in human HeLa cells assessed as PARP cleavage at 1 to 10 uM after 24 hrs by Western blot analysis; assay type: functional, cell-based
Cytochrome P450 2D6 = Cytochrome P450 2D6 (Homo sapiens, UniProt P10635); experiment: Inhibition of CYP2D6 (unknown origin); assay type: ADME
Chain of Cytochrome P450 2D6 (P10635 whole entry): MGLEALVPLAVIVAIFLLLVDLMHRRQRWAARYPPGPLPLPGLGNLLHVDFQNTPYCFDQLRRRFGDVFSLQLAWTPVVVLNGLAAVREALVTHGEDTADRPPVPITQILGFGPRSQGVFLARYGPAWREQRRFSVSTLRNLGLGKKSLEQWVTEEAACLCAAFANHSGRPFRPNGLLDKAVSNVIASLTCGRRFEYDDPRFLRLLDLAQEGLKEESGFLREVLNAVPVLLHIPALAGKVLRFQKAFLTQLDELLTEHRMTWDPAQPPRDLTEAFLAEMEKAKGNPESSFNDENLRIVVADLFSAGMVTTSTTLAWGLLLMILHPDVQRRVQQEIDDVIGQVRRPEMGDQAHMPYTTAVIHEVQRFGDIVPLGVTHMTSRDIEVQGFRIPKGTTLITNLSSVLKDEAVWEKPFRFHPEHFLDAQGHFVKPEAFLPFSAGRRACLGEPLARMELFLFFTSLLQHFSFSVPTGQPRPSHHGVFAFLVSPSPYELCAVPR

Chain of Histone deacetylase 1 (Q13547 whole entry): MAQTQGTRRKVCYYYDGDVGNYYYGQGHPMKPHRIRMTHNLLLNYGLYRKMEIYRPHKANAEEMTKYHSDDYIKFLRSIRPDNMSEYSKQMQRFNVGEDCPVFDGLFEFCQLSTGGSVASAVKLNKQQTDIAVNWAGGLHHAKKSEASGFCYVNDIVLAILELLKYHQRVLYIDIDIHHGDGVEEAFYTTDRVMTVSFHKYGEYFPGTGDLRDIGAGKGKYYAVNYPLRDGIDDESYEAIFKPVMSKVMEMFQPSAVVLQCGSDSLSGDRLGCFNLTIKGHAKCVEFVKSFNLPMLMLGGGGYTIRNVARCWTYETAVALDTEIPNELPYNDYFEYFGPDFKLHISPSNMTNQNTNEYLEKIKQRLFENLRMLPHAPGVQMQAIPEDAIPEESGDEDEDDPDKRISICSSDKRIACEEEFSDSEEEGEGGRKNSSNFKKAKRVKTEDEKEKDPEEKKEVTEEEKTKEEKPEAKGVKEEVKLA
Chain of Cytochrome P450 2C9 (P11712 whole entry): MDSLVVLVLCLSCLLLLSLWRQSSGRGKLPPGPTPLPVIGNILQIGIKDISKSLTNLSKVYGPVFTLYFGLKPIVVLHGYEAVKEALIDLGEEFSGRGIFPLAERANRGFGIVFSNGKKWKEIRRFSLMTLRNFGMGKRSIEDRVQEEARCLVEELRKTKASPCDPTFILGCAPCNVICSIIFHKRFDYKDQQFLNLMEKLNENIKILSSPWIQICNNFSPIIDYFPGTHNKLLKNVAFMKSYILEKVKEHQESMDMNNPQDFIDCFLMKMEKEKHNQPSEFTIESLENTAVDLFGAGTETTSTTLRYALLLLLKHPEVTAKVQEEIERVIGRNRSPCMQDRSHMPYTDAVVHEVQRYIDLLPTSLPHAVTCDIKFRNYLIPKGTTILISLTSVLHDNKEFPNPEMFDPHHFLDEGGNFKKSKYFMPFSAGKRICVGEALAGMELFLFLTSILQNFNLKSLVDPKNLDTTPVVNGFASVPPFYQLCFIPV
Chain of Histone deacetylase 2 (Q92769 whole entry): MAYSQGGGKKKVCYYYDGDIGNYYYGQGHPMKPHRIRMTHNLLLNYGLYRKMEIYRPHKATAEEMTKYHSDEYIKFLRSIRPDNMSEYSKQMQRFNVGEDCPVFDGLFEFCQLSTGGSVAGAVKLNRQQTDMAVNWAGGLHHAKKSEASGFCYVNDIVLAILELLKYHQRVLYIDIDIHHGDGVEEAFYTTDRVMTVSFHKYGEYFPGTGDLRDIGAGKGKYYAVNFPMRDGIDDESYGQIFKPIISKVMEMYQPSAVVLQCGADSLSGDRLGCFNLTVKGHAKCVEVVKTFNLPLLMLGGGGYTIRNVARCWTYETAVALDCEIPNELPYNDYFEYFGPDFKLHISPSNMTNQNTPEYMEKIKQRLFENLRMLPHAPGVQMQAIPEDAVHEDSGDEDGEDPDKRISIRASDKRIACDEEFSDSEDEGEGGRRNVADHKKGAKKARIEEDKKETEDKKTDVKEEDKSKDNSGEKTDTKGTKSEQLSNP

`Nc1ccccc1NC(=O)c1ccc(CNC2=N[C@@H](c3ccccc3)CS2)cc1` gave a logP [1] of 4.65, an IC50 (Cytochrome P450 2C9) of 16000 nM and an IC50 (DU-145) of 6400 nM. The IC50 (Histone deacetylase 2) was 85 nM, the IC50 (Histone deacetylase 1) was 930 nM and the IC50 (Histone deacetylase 8) was 4100 nM. The Activity (HeLa) was “inactive” and the IC50 (Cytochrome P450 2D6) was 80 nM.
